From publication PMC10951960, “CGP7930 - An allosteric modulator of GABABRs, GABAARs and inwardly-rectifying potassium channels” (Neuropharmacology, 2023)

Legend:
[1] = system: native GABAARs in hippocampal neurons; assay: muscimol-activated and CGP7930-activated GABAAR currents in hippocampal neurons, Cs+-based internal solution; type: cell-based, rat; conditions: read-out: muscimol EC50; hippocampal neurons, n = 9
Description: (§1) Briefly, single cells derived from dissected hippocampi were seeded onto glass coverslips coated with poly-D-lysine in a plating medium containing minimum essential media with 5% v/v heat-inactivated FCS, 5% v/v heat-inactivated horse serum, penicillin-G/streptomycin (100 U/100 μg/ml), 2 mM L-glutamine, and 20 mM glucose. Two hr after plating the media was changed to a Neurobasal-A based maintenance media supplemented with 1% v/v B-27, penicillin-G/streptomycin (100 U/100 μg/ml), 0.5% v/v Glutamax and 35 mM glucose.
(§2) Spontaneous inhibitory postsynaptic currents (sIPSCs) were recorded from cultured hippocampal neurons at 12–17 days in vitro (DIV). […] For recording K^+ currents in GIRK cells and neurons, the bath solution was switched to a high K^+ solution containing 25 mM KCl and reduced NaCl (120 mM), to shift the equilibrium potential for K^+ from approximately −90 to −47 mV, thus reversing the direction of K^+ current flux to net inward. GABABR-activated K^+ currents in cultured neurons were recorded in the additional presence of 2 mM kynurenic acid and 20 μM picrotoxin.
(§3) Borosilicate glass electrodes (3–5 MΩ) were filled with a K^+-based internal solution for recording GIRK currents containing (mM): 120 KCl, 2 MgCl2, 11 EGTA, 30 KOH, 10 HEPES, 1 CaCl2, 1 GTP, 2 ATP, 14 creatine phosphate, pH 7.0. GABAAR currents and sIPSCs were recorded with a Cs-based internal solution containing (mM): 120 CsCl, 1 MgCl2, 11 EGTA, 30 KOH, 10 HEPES, 1 CaCl2, and 2 K2ATP; pH 7.2. […] Cells were held at −60 mV (sIPSCs) or −60/−70 mV (K^+ currents). Voltage clamp recordings were undertaken after optimising series resistance (Rs, <10 MΩ) and compensating for the whole-cell membrane capacitance. Membrane currents were filtered at 5 kHz (−3 dB, 6th pole Bessel, 36 dB/octave) and stored for analysis with Clampex 10.
Concentration-response curves were generated by measuring the current (I) for each ligand concentration and normalising to the maximal current response (Imax).

[2] = system: GABAARs in hippocampal neurons; assay: slow inward current directly activated by CGP7930 in hippocampal neurons in high K+ external solution and its block by GABAAR antagonists; type: cell-based, rat; conditions: antagonist 100 μM, P < 0.001
Description: as §2
CGP7930 modulation at neuronal GABABRs was also characterised using baclofen-activated GIRK currents in hippocampal cultures similarly bathed in a high external K^+ concentration.

[3] = system: GABAAR-mediated tonic inhibition in hippocampal neurons; assay: tonic inhibition: baseline holding current and RMS noise in cultured hippocampal neurons; type: cell-based, rat; conditions: Control to Bic (50 μM bicuculline)
Description: as §1, §2, §3
For tonic inhibition, to determine the average holding currents, a 30 s continuous holding current recording was sampled every 1 s, discarding epochs that coincided with sIPSCs. Any effect of CGP7930 or bicuculline on the holding current was defined by subtracting the average holding currents in control and during drug application. The baseline root-mean-square current variance (RMS) was calculated before and during drug treatment. This was estimated from a continuous (20 s) current recording, sampled every 100 ms. The median current was calculated every 5 s and values more than twice the standard deviation from the median (usually due to IPSCs) were eliminated. All drugs were applied using a U-tube rapid drug application system, or more slowly via bath perfusion.
We assessed the effect of CGP7930 on tonic inhibition in hippocampal cultured neurons.

[4] = biological target: T1, GABABR (Rattus norvegicus, UniProt O88871+Q9Z0U4); assay: GABABR antagonism by CGP55845 in hippocampal whole-cell recording; type: cell-based; conditions: n = 6, data not shown; read-out: IC50 of GABABR antagonist under our recording conditions
T1 construct: endogenous in cells; host or cells: cultured rat (E18 Sprague-Dawley) hippocampal neurons, 12-17 DIV
T1 sequence (Q9Z0U4 17-960 limits assumed): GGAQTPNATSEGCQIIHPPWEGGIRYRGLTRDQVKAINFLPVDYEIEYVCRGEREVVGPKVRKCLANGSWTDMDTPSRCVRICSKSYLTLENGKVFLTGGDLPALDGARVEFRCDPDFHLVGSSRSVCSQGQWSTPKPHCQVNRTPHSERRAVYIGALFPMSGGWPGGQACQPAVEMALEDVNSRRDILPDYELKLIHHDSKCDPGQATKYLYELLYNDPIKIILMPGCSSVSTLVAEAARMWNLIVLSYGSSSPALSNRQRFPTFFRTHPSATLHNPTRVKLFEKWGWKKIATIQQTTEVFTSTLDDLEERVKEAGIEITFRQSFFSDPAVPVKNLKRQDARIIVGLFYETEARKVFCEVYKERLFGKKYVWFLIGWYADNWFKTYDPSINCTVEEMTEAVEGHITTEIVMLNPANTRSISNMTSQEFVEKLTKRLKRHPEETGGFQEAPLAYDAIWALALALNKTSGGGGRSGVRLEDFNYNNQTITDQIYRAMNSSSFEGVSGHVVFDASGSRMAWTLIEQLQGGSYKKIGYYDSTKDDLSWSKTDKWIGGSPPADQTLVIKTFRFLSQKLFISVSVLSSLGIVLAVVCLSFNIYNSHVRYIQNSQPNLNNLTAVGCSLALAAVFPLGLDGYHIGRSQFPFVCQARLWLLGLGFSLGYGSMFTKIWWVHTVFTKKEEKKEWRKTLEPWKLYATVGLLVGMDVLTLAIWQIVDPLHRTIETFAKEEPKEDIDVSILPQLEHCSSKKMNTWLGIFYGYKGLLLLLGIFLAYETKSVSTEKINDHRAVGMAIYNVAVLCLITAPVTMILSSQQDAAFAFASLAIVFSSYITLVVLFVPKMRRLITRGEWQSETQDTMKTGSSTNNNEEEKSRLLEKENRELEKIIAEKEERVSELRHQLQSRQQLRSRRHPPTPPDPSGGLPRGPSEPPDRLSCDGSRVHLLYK
T1 sequence (O88871 41-940): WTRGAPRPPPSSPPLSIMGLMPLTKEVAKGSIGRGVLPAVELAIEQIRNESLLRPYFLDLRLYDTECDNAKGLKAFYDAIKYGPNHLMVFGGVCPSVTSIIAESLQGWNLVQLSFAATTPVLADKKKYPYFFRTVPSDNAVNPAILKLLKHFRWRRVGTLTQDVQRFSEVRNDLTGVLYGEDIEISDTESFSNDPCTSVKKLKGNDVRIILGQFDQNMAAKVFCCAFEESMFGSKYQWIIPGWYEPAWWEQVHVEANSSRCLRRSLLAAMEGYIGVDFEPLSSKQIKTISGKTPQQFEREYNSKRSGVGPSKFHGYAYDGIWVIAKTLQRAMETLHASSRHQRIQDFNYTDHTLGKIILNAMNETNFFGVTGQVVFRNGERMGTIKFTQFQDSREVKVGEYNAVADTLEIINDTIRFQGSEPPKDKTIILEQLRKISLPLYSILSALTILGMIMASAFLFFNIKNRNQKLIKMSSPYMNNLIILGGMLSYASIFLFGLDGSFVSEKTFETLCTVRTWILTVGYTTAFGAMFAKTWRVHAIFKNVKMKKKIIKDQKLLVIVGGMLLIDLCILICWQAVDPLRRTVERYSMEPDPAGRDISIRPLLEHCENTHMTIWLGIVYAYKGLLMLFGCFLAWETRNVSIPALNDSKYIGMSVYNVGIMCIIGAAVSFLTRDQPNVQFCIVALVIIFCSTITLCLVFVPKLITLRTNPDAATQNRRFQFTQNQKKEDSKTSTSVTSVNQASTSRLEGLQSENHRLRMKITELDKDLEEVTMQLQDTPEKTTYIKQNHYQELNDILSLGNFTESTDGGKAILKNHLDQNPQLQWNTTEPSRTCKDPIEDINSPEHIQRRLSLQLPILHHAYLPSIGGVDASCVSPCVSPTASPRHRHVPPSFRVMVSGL

NCc1cc(=O)[nH]o1 [muscimol]
EC50 [1]: 2700 ± 100 nM

CN1CCc2cc3c(cc2[C@H]1[C@@H]1OC(=O)c2c1ccc1c2OCO1)OCO3 [bicuculline]
effect on the slow inward current caused by > 3 μM CGP7930 [2]: abolished
Tonic currents (change in baseline holding current) [3]: 38.02 ± 7.43 (6) pA

picrotoxin
effect on the slow inward current caused by > 3 μM CGP7930 [2]: abolished

C[C@H](NC[C@H](O)CP(=O)(O)Cc1ccccc1)c1ccc(Cl)c(Cl)c1 [CGP55845]
IC50 [4]: 10 ± 0.7 nM
